In ChEMBL document CHEMBL2311291, “Novel P2 tris-tetrahydrofuran group in antiviral compound 1 (GRL-0519) fills the S2 binding pocket of selected mutants of HIV-1 protease” (J Med Chem, 2013):

How the values were obtained:
Protease = Protease (Human immunodeficiency virus 1, UniProt Q9YQ12); assay: Inhibition of HIV-1 wildtype protease using Abz-Thr-Ile-Nle-p-nitro-Phe-Gln-Arg-NH2 as substrate incubated for 5 mins prior to substrate addition measured for 5 mins by fluorescence assay
[1] = molecular target: Human immunodeficiency virus type 1 protease (Human immunodeficiency virus 1, UniProt Q72874, V82A); assay: Inhibition of HIV-1 protease V82A mutant using Abz-Thr-Ile-Nle-p-nitro-Phe-Gln-Arg-NH2 as substrate incubated for 5 mins prior to substrate addition measured for 5 mins by fluorescence assay
[2] = system: Human immunodeficiency virus 1; assay: Ratio of Ki for HIV-1protease I54M mutant to Ki for HIV-1 wildtype protease
[3] = molecular target: Human immunodeficiency virus type 1 protease (Human immunodeficiency virus 1, UniProt Q72874, D30N); assay: Inhibition of HIV-1 protease D30N mutant using Abz-Thr-Ile-Nle-p-nitro-Phe-Gln-Arg-NH2 as substrate incubated for 5 mins prior to substrate addition measured for 5 mins by fluorescence assay
[4] = system: Human immunodeficiency virus 1; assay: Ratio of Ki for HIV-1 protease D30N mutant to Ki for HIV-1 wildtype protease
[5] = system: Human immunodeficiency virus 1; assay: Ratio of Ki for HIV-1 protease I50V mutant to Ki for HIV-1 wildtype protease
[6] = system: Human immunodeficiency virus 1; assay: Ratio of Ki for HIV-1 protease R8Q mutant to Ki for HIV-1 wildtype protease
[7] = molecular target: Human immunodeficiency virus type 1 protease (Human immunodeficiency virus 1, UniProt Q72874, I50V); assay: Inhibition of HIV-1 protease I50V mutant using Abz-Thr-Ile-Nle-p-nitro-Phe-Gln-Arg-NH2 as substrate incubated for 5 mins prior to substrate addition measured for 5 mins by fluorescence assay
[8] = molecular target: Human immunodeficiency virus type 1 protease (Human immunodeficiency virus 1, UniProt Q72874, R8Q); assay: Inhibition of HIV-1 protease R8Q mutant using Abz-Thr-Ile-Nle-p-nitro-Phe-Gln-Arg-NH2 as substrate incubated for 5 mins prior to substrate addition measured for 5 mins by fluorescence assay
[9] = system: Human immunodeficiency virus 1; assay: Ratio of Ki for HIV-1 protease V82A mutant to Ki for HIV-1 wildtype protease
[10] = molecular target: Human immunodeficiency virus type 1 protease (Human immunodeficiency virus 1, UniProt Q72874, I54M); assay: Inhibition of HIV-1 protease I54M mutant using Abz-Thr-Ile-Nle-p-nitro-Phe-Gln-Arg-NH2 as substrate incubated for 5 mins prior to substrate addition measured for 5 mins by fluorescence assay

Sequence of Protease (Q9YQ12 whole entry): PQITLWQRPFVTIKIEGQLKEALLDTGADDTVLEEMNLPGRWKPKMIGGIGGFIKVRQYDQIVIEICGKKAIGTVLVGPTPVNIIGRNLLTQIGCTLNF

Question: With COc1ccc(S(=O)(=O)N(CC(C)C)C[C@@H](O)[C@H](Cc2ccccc2)NC(=O)O[C@H]2CO[C@H]3O[C@@H]4OCC[C@@H]4[C@H]32)cc1 as the compound, how does the Ki (Protease) read?
Answer: Its Ki is 0.5 nM.

Question: And the Ki [1]?
Answer: The Ki was 3.2 nM.

Question: What about the Ratio Ki [2] of the same compound?
Answer: The Ratio Ki was 7.

Question: What about the Ki [3] of the same compound?
Answer: Its Ki is 8.9 nM.

Question: And the Ratio Ki [4]?
Answer: The Ratio Ki was 18.

Question: And the Ratio Ki [5]?
Answer: Its Ratio Ki is 60.

Question: And the Ratio Ki [6]?
Answer: Its Ratio Ki is 2.

Question: What about the Ki [7] of the same compound?
Answer: The Ki was 30.9 nM.

Question: What about the Ki [8] of the same compound?
Answer: The Ki was 1.2 nM.

Question: And the Ratio Ki [9]?
Answer: The Ratio Ki was 6.

Question: And the Ki [10]?
Answer: The Ki was 3.5 nM.
